We go through 1 compound from patent US20170042955A1, “Novel Anti-Fungal Composition” (priority 2014, published 2017).

One test relates to C. albicans. Nature of the test: Antifungal activity by modified Kerby-Bauer disc method. Format: cell-based, Candida albicans. The protocol:
• Susceptibility disks (5 mm in diameter) were impregnated with 0.5 mg of desired compound(s)/extract dissolved in DMSO, and placed on Sabouraud dextrose agar plates separately inoculated with the C. albicans and C. glabrata. […] Disc containing only DMSO was used as a negative control. • Anticandidal activity against Candida species: • Dose dependent anti-candidal activity was observed up on treatment using Lawsoniainermisextract against tested C. albicans and C. glabrata (Table 1).

The subject of test [1] is proteinase of C. albicans NCIM 3074. In words: Protease inhibitory activity, native gel electrophoresis (casein zymogram). Format: cell-based, Candida albicans. As to conditions: 100 μg mL-1 Lawsone; 24-48 h at 37° C.; FIG. 6. The protocol: (§1) C. albicans NCIM 3074 culture was grown in Sabouraud broth at 37° C. for 12 h. The culture was centrifuged at 7000 rpm for 5 mm to pellet the cells. The cell pellet was washed twice with normal saline and centrifuged to collect the pellets. 100 μL of Candida albicans cell suspension was added to proteinase induction medium containing 1% glucose, 3% yeast carbon base and 1% BSA (Bovine Serum Albumin). […] This was added to respective test tubes immediately after the inoculation of culture. The mixture was incubated for 24-48 h at 37° C. in a shaker at 150 rpm. Culture broth was centrifuged at 7000 rpm for 15 min to remove cells. Cells were lysed and cell lysis was used for zymographic studies after protein estimation. Zymogram was performed with 1% casein incorporated in the acrylamide gel to detect the proteinase inhibition activity. The proteinase inhibitory activity was indicated by no cleavage of casein (no band formation) and it can be compared to complete cleavage of casein by proteinases (white band formation) in control groups. […] Subsequently, 1 ml of 60% perchloric acid was added and the final volume was made to 9.1 ml using distilled water to this 0.5 ml of molybdate II reagent and 0.4 ml ANSA reagent mixture was added. The tubes were shaken well and heated in a boiling water bath for 8 mm exactly. The blue color developed was read using spectrophotometer at 680 nm.

Test [2] concerns Phospholipase of C. albicans. Nature of the test: Phospholipase inhibitory activity, spectrophotometric analysis. Format: cell-based, Candida albicans. As to conditions: Lawsone 100 μg/ml. On the procedure:
as §1

Another test relates to Candida sp. As to conditions: literature study (13); cited from earlier work.

Regarding `O=C1C=C(O)C(=O)c2ccccc21` [Lawsone], the “Inhibition of candidal growth” value in the test on C. albicans (C. albicans, all three concentrations 50, 100 and 200 μg/ml, FIG. 1) is listed as “Complete inhibition of candidal growth”. In the test with C. albicans (Candida albicans), the zone of inhibition at 50 µg/disc was found to be 14 mm, the zone of inhibition at 100 µg/disc was found to be 16 mm and the zone of inhibition at 200 µg/disc stood at 17 mm. Further, in test [1], the “Zymogram result, casein cleavage” value is “intact Casein (no band/less intense band formation)”. Besides, the “% Inhibition of Phospholipase Enzyme Activity” value in test [2] (compared to Control) stood at 77.78%. Further, the “Phospholipase Enzyme Activity (O.D)” value in test [2] (read at 680 nm) came to 0.02 O.D. Further, the “Activity on Candida sp.” value in the test on Candida sp. is given as “there isn't appreciable activity”.
